# Biological target: BTK (Homo sapiens, UniProt Q06187)
# Test: biochemical
# Conditions: read-out: BTK inhibition (%), 0.75 uM BTK, […] probe 3l, 15 min preincubation
# Chain of BTK (Q06187 402-655 limits assumed): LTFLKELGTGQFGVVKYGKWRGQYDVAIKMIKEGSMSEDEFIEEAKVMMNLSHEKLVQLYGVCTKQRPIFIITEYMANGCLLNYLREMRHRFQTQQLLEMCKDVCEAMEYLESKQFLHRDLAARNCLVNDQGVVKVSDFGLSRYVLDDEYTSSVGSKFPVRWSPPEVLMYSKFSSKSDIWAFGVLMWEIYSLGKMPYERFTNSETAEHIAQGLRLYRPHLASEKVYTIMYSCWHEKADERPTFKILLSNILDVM
row,Compound,inhibition at 10 µM
1,CC1Cc2ccccc2N1NC(=O)c1ccc(Cl)c(S(N)(=O)=O)c1 (stereo not shown) [PCM-0085884],6.2%
2,NC(=NCCCCCCN=C(N)/N=C(\N)Nc1ccc(Cl)cc1)/N=C(\N)Nc1ccc(Cl)cc1 [PCM-0085888],3.1%
3,NCCCC[C@H](N[C@@H](CCc1ccccc1)C(=O)O)C(=O)N1CCC[C@H]1C(=O)O [PCM-0085899],1.7%
4,Clc1ccc(COC(Cn2ccnc2)c2ccc(Cl)cc2Cl)cc1 (stereo not shown) [PCM-0085902],7.8%
5,Oc1c(Cl)cc(Cl)c2cccnc12 [PCM-0085913],-0.8%
6,C[N+]1(C)CCC(=C(c2ccccc2)c2ccccc2)CC1 [PCM-0085922],13.2%
7,CN[C@@H]1[C@H](O[C@H]2[C@H](O[C@H]3[C@H](O)[C@@H](O)[C@H](N=C(N)N)[C@@H](O)[C@@H]3N=C(N)N)O[C@@H](C)[C@]2(O)CO)O[C@@H](CO)[C@H](O)[C@H]1O [PCM-0085923],9.4%
8,CCN1CCN(C(=O)N[C@@H](C(=O)N[C@@H]2C(=O)N3C(C(=O)O)=C(CSc4nnnn4C)CS[C@H]23)c2ccc(O)cc2)C(=O)C1=O [PCM-0085943],-12.5%
9,Clc1ccc(CCC(Cn2ccnc2)Sc2c(Cl)cccc2Cl)cc1 (stereo not shown) [PCM-0085946],37.4%
10,NC(=O)c1cccnc1 [PCM-0085961],12.5%
11,C#Cc1cccc(Nc2ncnc3cc(OCCOC)c(OCCOC)cc23)c1 [PCM-0085975],1.7%
12,NC(=O)N/N=C/c1ccc([N+](=O)[O-])o1 [PCM-0085977],0.8%
13,C[C@@H]1C[C@H]2[C@@H]3CCC4=CC(=O)C=C[C@]4(C)[C@@]3(Cl)[C@@H](O)C[C@]2(C)[C@@]1(OC(=O)c1ccco1)C(=O)CCl [PCM-0085978],40%
14,NS(=O)(=O)c1cc(C(=O)O)c(NCc2ccco2)cc1Cl [PCM-0085991],-2.3%
15,C=C1/C(=C\C=C2/CCC[C@]3(C)[C@@H]([C@H](C)CCCC(C)C)CC[C@@H]23)C[C@@H](O)C[C@@H]1O [PCM-0086012],-3.1%
16,COc1ccc2c3c1O[C@H]1C[C@@H](O)C=C[C@@]31CCN(C)C2 [PCM-0086015],-17.1%
17,Nc1ncnc2c1ncn2[C@@H]1O[C@H](COP(=O)(O)O)[C@@H](O)[C@H]1O [PCM-0086027],-23.2%
18,COc1cccc2c1C(=O)c1c(O)c3c(c(O)c1C2=O)C[C@@](O)(C(=O)CO)C[C@@H]3O[C@H]1C[C@H](N)[C@H](O)[C@H](C)O1 [PCM-0086032],42.8%
19,NC(=O)N1c2ccccc2CC(=O)c2ccccc21 [PCM-0086055],-10.1%
20,Cc1cnc(NC(=O)C2=C(O)c3ccccc3S(=O)(=O)N2C)s1 [PCM-0086060],-6.2%
21,OCCN1C[C@H](O)[C@@H](O)[C@H](O)[C@H]1CO [PCM-0086065],-23.3%
22,COc1cc(C(=O)NS(=O)(=O)c2ccccc2C)ccc1Cc1cn(C)c2ccc(NC(=O)OC3CCCC3)cc12 [PCM-0086066],47.6%
23,CN(Cc1ccc(C(C)(C)C)cc1)Cc1cccc2ccccc12 [PCM-0086068],62.3%
24,CN1C(C(=O)Nc2ccccn2)=C(O)c2sccc2S1(=O)=O [PCM-0086073],-6.9%
25,Cc1cccc(CN2CCN(C(c3ccccc3)c3ccc(Cl)cc3)CC2)c1 (stereo not shown) [PCM-0086087],67.2%
26,Nc1cc(C(Cl)=C(Cl)Cl)c(S(N)(=O)=O)cc1S(N)(=O)=O [PCM-0086106],-3.9%
27,CC(C)(Sc1cc(C(C)(C)C)c(O)c(C(C)(C)C)c1)Sc1cc(C(C)(C)C)c(O)c(C(C)(C)C)c1 [PCM-0086112],0.8%
28,OCCOCCN1CCN(C2=Nc3ccccc3Sc3ccccc32)CC1 [PCM-0086113],-4.7%

# Other lines, results leading:
row,inhibition at 10 µM,Compound
1,-19.3%,COc1ccc2c(c1)c(CC(=O)OCC(=O)O)c(C)n2C(=O)c1ccc(Cl)cc1 [PCM-0085879]
2,-12.5%,CCCC(=O)Nc1ccc(OCC(O)CNC(C)C)c(C(C)=O)c1 (stereo not shown) [PCM-0085895]
3,-12.8%,CCn1cc(C(=O)O)c(=O)c2cc(F)c(N3CCNCC3)cc21 [PCM-0085898]
4,-9.3%,CCCCN1CCCCC1C(=O)Nc1c(C)cccc1C (stereo not shown) [PCM-0085904]
5,8.3%,CCN(CC)Cc1cc(Nc2ccnc3cc(Cl)ccc23)ccc1O [PCM-0085909]
6,-7.8%,CCN(CC)CCOC(=O)C(c1ccccc1)c1ccccc1 [PCM-0085916]
7,5.4%,CCOC(=O)[C@H](CCc1ccccc1)N[C@@H](C)C(=O)N1CCC[C@H]1C(=O)O [PCM-0085929]
8,19.5%,N[C@@H](Cc1cc(I)c(Oc2cc(I)c(O)c(I)c2)c(I)c1)C(=O)O [PCM-0085937]
9,-11%,COC1=C(OC)C(=O)C(CCCCCCCCCCO)=C(C)C1=O [PCM-0085939]
10,38.1%,CCN(CC)C(=O)/C(C#N)=C/c1cc(O)c(O)c([N+](=O)[O-])c1 [PCM-0085960]
11,-3.1%,Cc1cn([C@H]2C[C@H](N=[N+]=[N-])[C@@H](CO)O2)c(=O)[nH]c1=O [PCM-0085965]
12,10.9%,Cc1noc(NS(=O)(=O)c2ccc(N)cc2)c1C [PCM-0085967]
13,14%,Nc1ccn([C@@H]2CS[C@H](CO)O2)c(=O)n1 [PCM-0085971]
14,0%,O=C(O)CCCC[C@@H]1SC[C@@H]2NC(=O)N[C@@H]21 [PCM-0085973]
15,3.1%,CCCc1cc(=O)[nH]c(=S)[nH]1 [PCM-0085981]
16,16.3%,CCOC(=O)C1=C(C)NC(C)=C(C(=O)OCC)C1c1ccccc1/C=C/C(=O)OC(C)(C)C [PCM-0085989]
17,-12.5%,COc1cc(OC)c(C(=O)CCCN2CCCC2)c(OC)c1 [PCM-0085999]

row,inhibition at 10 µM,Compound
1,-3.4%,CC(=O)OCC(=O)NCCCOc1cccc(CN2CCCCC2)c1 [PCM-0086003]
2,-7.8%,CC(C)[C@H](N)C(=O)OCCOCn1cnc2c(=O)[nH]c(N)nc21 [PCM-0086005]
3,13.2%,COc1cc(N)c(Cl)cc1C(=O)N[C@H]1CCN(CCCOc2ccc(F)cc2)C[C@H]1OC [PCM-0086006]
4,5.5%,CN1CCCC(n2nc(Cc3ccc(Cl)cc3)c3ccccc3c2=O)CC1 (stereo not shown) [PCM-0086017]
5,-17%,Cc1cccn2c(=O)c(-c3nnn[nH]3)cnc12 [PCM-0086031]
6,-17.1%,CCOC(=O)n1ccn(C)c1=S [PCM-0086034]
7,2.3%,CCOCCn1c(N2CCCN(C)CC2)nc2ccccc21 [PCM-0086037]
8,9.3%,CC[C@H](C)C(=O)O[C@H]1C[C@@H](C)C=C2C=C[C@H](C)[C@H](CC[C@@H]3C[C@@H](O)CC(=O)O3)[C@H]21 [PCM-0086045]
9,-4.1%,Cn1nnc2c(C(N)=O)ncn2c1=O [PCM-0086047]
10,-11.7%,CCN[C@H]1CN(CCCOC)S(=O)(=O)c2sc(S(N)(=O)=O)cc21 [PCM-0086056]
11,-17.1%,c1ccc2[nH]c(-c3cscn3)nc2c1 [PCM-0086067]
12,-14.8%,CCc1cc(C(N)=S)ccn1 [PCM-0086071]
13,10.2%,CCCOc1ccc2nc(NC(=O)OC)[nH]c2c1 [PCM-0086075]
14,5.5%,CCOc1ccc(NC(C)=O)cc1 [PCM-0086095]
15,-10.1%,Nc1nc(=O)n([C@@H]2CS[C@H](CO)O2)cc1F [PCM-0086099]
16,3.1%,Cc1cnc(C(=O)O)c[n+]1[O-] [PCM-0086103]

# From PMC8041284, “Tunable Methacrylamides for Covalent Ligand Directed Release Chemistry” (Journal of the American Chemical Society, 2021)
